# Measurements: ChEMBL document CHEMBL3621157, “Design, synthesis and biological evaluation of novel 1,2,4-triazolo and 1,2,4-triazino[4,3-a]quinoxalines as potential anticancer and antimicrobial agents” (2015)
# Experiments:
# Type in all cases: functional
# PC-3 [1] = experiment: Growth inhibition of human PC3 cells incubated for 48 hrs by sulforhodamine B assay; details: PC-3, 48 h
# DU-145 = experiment: Growth inhibition of human DU145 cells incubated for 48 hrs by sulforhodamine B assay; details: DU-145, 48 h
# MCF7 = experiment: Growth inhibition of human MCF7 cells incubated for 48 hrs by sulforhodamine B assay; details: MCF7, 48 h
# MDA-MB-468 = experiment: Growth inhibition of human MDA-MB-468 cells incubated for 48 hrs by sulforhodamine B assay; details: MDA-MB-468, 48 h
# Staphylococcus aureus [2] = experiment: Antimicrobial activity against Staphylococcus aureus DSM 1104 incubated at 37 degC for 24 hrs by cup diffusion method
# Pseudomonas aeruginosa [3] = experiment: Antimicrobial activity against Pseudomonas aeruginosa ATCC 10145 incubated at 37 degC for 24 hrs by cup diffusion method
# Candida albicans [4] = experiment: Antimicrobial activity against Candida albicans DSM 70014 incubated at 37 degC for 48 hrs by cup diffusion method
# Staphylococcus aureus [5] = experiment: Antimicrobial activity against Staphylococcus aureus DSM 1104 incubated for 24 hrs by two-fold serial broth dilution method; details: DSM 1104, 24 h
# Staphylococcus aureus [6] = experiment: Antimicrobial activity against Staphylococcus aureus DSM 1104 incubated for 24 hrs followed by transfer of colonies to Muller-Hinton agar plate and measured after 18 hrs by two-fold serial broth dilution method
# Bacillus subtilis [7] = experiment: Antimicrobial activity against Bacillus subtilis ATCC 6633 incubated for 24 hrs by two-fold serial broth dilution method; details: ATCC 6633, 24 h
# Bacillus subtilis [8] = experiment: Antimicrobial activity against Bacillus subtilis ATCC 6633 incubated for 24 hrs followed by transfer of colonies to Muller-Hinton agar plate and measured after 18 hrs by two-fold serial broth dilution method
# Pseudomonas aeruginosa [9] = experiment: Antimicrobial activity against Pseudomonas aeruginosa ATCC 10145 incubated for 24 hrs followed by transfer of colonies to Muller-Hinton agar plate and measured after 18 hrs by two-fold serial broth dilution method
# Escherichia coli [10] = experiment: Antimicrobial activity against Escherichia coli ATCC 11775 incubated for 24 hrs by two-fold serial broth dilution method; details: ATCC 11775, 24 h
# Escherichia coli [11] = experiment: Antimicrobial activity against Escherichia coli ATCC 11775 incubated for 24 hrs followed by transfer of colonies to Muller-Hinton agar plate and measured after 18 hrs by two-fold serial broth dilution method
# Candida albicans [12] = experiment: Antimicrobial activity against Candida albicans DSM 70014 incubated for 48 hrs followed by transfer of colonies to Muller-Hinton agar plate and measured after 18 hrs by two-fold serial broth dilution method
# SR [13] = experiment: Growth inhibition of human SR cells at 10 uM incubated for 48 hrs by sulforhodamine B assay; details: read-out: GI
# [14] = Growth inhibition of human EKVX cells at 10 uM incubated for 48 hrs by sulforhodamine B assay; details: read-out: GI
# NCI-H460 = experiment: Growth inhibition of human NCI-H460 cells at 10 uM incubated for 48 hrs by sulforhodamine B assay; details: NCI-H460, 48 h, read-out: GI
# HCT-116 = experiment: Growth inhibition of human HCT116 cells at 10 uM incubated for 48 hrs by sulforhodamine B assay; details: HCT-116, 48 h, read-out: GI
# SF-268 = experiment: Growth inhibition of human SF268 cells at 10 uM incubated for 48 hrs by sulforhodamine B assay; details: SF-268, 48 h, read-out: GI
# [15] = Growth inhibition of human LOXIMVI cells at 10 uM incubated for 48 hrs by sulforhodamine B assay; details: LOX IMVI, read-out: GI
# PC-3 [16] = experiment: Growth inhibition of human PC3 cells at 10 uM incubated for 48 hrs by sulforhodamine B assay; details: PC-3, 48 h, read-out: GI
# [17] = Growth inhibition of human MOLT4 cells incubated for 48 hrs by sulforhodamine B assay; details: MOLT-4, 48 h
# SR [18] = experiment: Growth inhibition of human SR cells incubated for 48 hrs by sulforhodamine B assay
# [19] = Growth inhibition of human EKVX cells incubated for 48 hrs by sulforhodamine B assay
# [20] = Growth inhibition of human HOP92 cells incubated for 48 hrs by sulforhodamine B assay; details: HOP-92, 48 h
# NCI-H322M = experiment: Growth inhibition of human NCI-H322M cells incubated for 48 hrs by sulforhodamine B assay
# NCI-H522 = experiment: Growth inhibition of human NCI-H522 cells incubated for 48 hrs by sulforhodamine B assay; details: NCI-H522, 48 h
# [21] = Growth inhibition of human COLO205 cells incubated for 48 hrs by sulforhodamine B assay; details: COLO 205, 48 h
# HCT-15 = experiment: Growth inhibition of human HCT15 cells incubated for 48 hrs by sulforhodamine B assay; details: HCT-15, 48 h
# HT-29 = experiment: Growth inhibition of human HT-29 cells incubated for 48 hrs by sulforhodamine B assay; details: HT-29, 48 h
# KM12 = experiment: Growth inhibition of human KM12 cells incubated for 48 hrs by sulforhodamine B assay; details: KM12, 48 h
# SNB-19 = experiment: Growth inhibition of human SNB19 cells incubated for 48 hrs by sulforhodamine B assay; details: SNB-19, 48 h
# [22] = Growth inhibition of human LOXIMVI cells incubated for 48 hrs by sulforhodamine B assay; details: LOX IMVI
# M14 = experiment: Growth inhibition of human M14 cells incubated for 48 hrs by sulforhodamine B assay; details: M14, 48 h
# SK-MEL-2 = experiment: Growth inhibition of human SK-MEL-2 cells incubated for 48 hrs by sulforhodamine B assay; details: SK-MEL-2, 48 h
# SK-MEL-5 = experiment: Growth inhibition of human SK-MEL-5 cells incubated for 48 hrs by sulforhodamine B assay; details: SK-MEL-5, 48 h
# OVCAR-3 = experiment: Growth inhibition of human OVCAR3 cells incubated for 48 hrs by sulforhodamine B assay; details: OVCAR-3, 48 h
# OVCAR-4 = experiment: Growth inhibition of human OVCAR4 cells incubated for 48 hrs by sulforhodamine B assay; details: OVCAR-4, 48 h
# OVCAR-8 = experiment: Growth inhibition of human OVCAR8 cells incubated for 48 hrs by sulforhodamine B assay; details: OVCAR-8, 48 h
# [23] = Growth inhibition of human NCI-ADR-RES cells incubated for 48 hrs by sulforhodamine B assay
# 786-0 = experiment: Growth inhibition of human 786-0 cells incubated for 48 hrs by sulforhodamine B assay; details: 786-0, 48 h
# A498 = experiment: Growth inhibition of human A498 cells incubated for 48 hrs by sulforhodamine B assay; details: A498, 48 h
# ACHN = experiment: Growth inhibition of human ACHN cells incubated for 48 hrs by sulforhodamine B assay
# CAKI-1 = experiment: Growth inhibition of human CAKI-1 cells incubated for 48 hrs by sulforhodamine B assay; details: CAKI-1, 48 h
# TK-10 = experiment: Growth inhibition of human TK10 cells incubated for 48 hrs by sulforhodamine B assay; details: TK-10, 48 h
structure (smiles),measurement,setting,value
Clc1ccccc1-c1nnc2c(Cc3ccccc3)nc3ccccc3n12,GI50,PC-3 [1],5.19 µM
same,GI50,DU-145,44.2 µM
same,GI50,MCF7,22.2 µM
same,GI50,MDA-MB-468,5.55 µM
same,inhibition zone (IZ),Staphylococcus aureus [2],12 mm
same,inhibition zone (IZ),Pseudomonas aeruginosa [3],14 mm
same,inhibition zone (IZ),Candida albicans [4],16 mm
same,MIC,Staphylococcus aureus [5],100 µg/mL
same,MBC,Staphylococcus aureus [6],200 µg/mL
same,MIC,Bacillus subtilis [7],25 µg/mL
same,MBC,Bacillus subtilis [8],50 µg/mL
same,MBC,Pseudomonas aeruginosa [9],100 µg/mL
same,MIC,Escherichia coli [10],25 µg/mL
same,MBC,Escherichia coli [11],50 µg/mL
same,MFC,Candida albicans [12],200 µg/mL
same,inhibition of growth at 10 µM,SR [13],84.9%
same,inhibition of growth at 10 µM,[14],48.1%
same,inhibition of growth at 10 µM,NCI-H460,84.4%
same,inhibition of growth at 10 µM,HCT-116,65.9%
same,inhibition of growth at 10 µM,SF-268,47.5%
same,inhibition of growth at 10 µM,[15],60.6%
same,inhibition of growth at 10 µM,PC-3 [16],60.9%
same,GI50,[17],9.04 µM
same,GI50,SR [18],3.91 µM
same,GI50,[19],5.96 µM
same,GI50,[20],3.45 µM
same,GI50,NCI-H322M,53.9 µM
same,GI50,NCI-H522,53.9 µM
same,GI50,[21],8.77 µM
same,GI50,HCT-15,1.96 µM
same,GI50,HT-29,9.15 µM
same,GI50,KM12,9.48 µM
same,GI50,SNB-19,27.8 µM
same,GI50,[22],3.69 µM
same,GI50,M14,36.7 µM
same,GI50,SK-MEL-2,55.8 µM
same,GI50,SK-MEL-5,5.9 µM
same,GI50,OVCAR-3,21.7 µM
same,GI50,OVCAR-4,8.01 µM
same,GI50,OVCAR-8,7.21 µM
same,GI50,[23],7.04 µM
same,GI50,786-0,10.4 µM
same,GI50,A498,1.8 µM
same,GI50,ACHN,34.1 µM
same,GI50,CAKI-1,9.71 µM
same,GI50,TK-10,37.4 µM
